Source: patent publication US8802664B2 (Bioproject, priority 2010, dated 2014)

What was measured:
human H4 receptor = molecular target: T1, human H4 receptor (Homo sapiens, UniProt Q9H3N8); experiment: [3H]Histamine binding on membranes of CHO cells stably expressing human H4 receptor
T1 construct: expressed in transfected cells
Procedure, shortened: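 Membranes from sub-confluent CHO-hH4 cells, 20 μg protein per well, were incubated in 50 mM Tris/HCl, 0.5 mM EDTA, pH 7.4. Nonspecific binding was defined with 10 μM JNJ 7777120. Bound radioactivity was collected on PEI-soaked GF/B filters and counted by liquid scintillation.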

T1 sequence (Q9H3N8 whole entry): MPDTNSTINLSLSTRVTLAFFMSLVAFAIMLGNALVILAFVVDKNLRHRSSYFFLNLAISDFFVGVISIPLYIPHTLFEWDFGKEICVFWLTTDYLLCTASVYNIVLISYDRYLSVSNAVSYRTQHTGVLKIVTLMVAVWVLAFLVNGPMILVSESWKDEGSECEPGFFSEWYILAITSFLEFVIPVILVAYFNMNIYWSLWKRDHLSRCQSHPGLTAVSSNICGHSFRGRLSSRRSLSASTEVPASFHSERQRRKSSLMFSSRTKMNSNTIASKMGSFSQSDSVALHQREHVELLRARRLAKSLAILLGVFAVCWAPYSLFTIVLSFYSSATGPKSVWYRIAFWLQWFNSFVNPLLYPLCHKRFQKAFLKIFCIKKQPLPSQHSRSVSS

SMILES	Ki or IC50 activity class (human H4 receptor) [nM]	melting point [°C]
CC(C)COc1cccc(C(NC2CCN(C)CC2)c2nc3ccccc3[nH]2)c1 (stereo not drawn) [Example 67, [(1H-benzimidazol-2-yl)(3-isobutoxyphenyl)methyl](1-methylpiperidin-4-yl)amine]	< 30	99
CN1CCC(OC(c2cccc(-c3ccccc3CO)c2)c2nc3ccccc3[nH]2)CC1 (stereo not drawn) [Example 123, {3′-[(1H-benzimidazol-2-yl)(1-methylpiperidin-4-yloxy)methyl]biphenyl-2-yl}methanol]	< 1000	107
CN1CCC(OC(c2nc3ccccc3[nH]2)c2cc(Cl)ccc2O)CC1 (stereo not drawn) [Example 569]	< 30	185
CC(O)CSc1cccc(C(OC2CCN(C)CC2)c2nc3ccccc3[nH]2)c1 (stereo not drawn) [Example 247, 1-{3-[(1H-benzimidazol-2-yl)(1-methylpiperidin-4-yloxy)methyl]phenylsulfanyl}propan-2-ol]	< 300	120 to 122
Cc1ccc(C(OC2CCN(C)CC2)c2nc3ccccc3[nH]2)cc1Br (stereo not drawn) [Example 261, 2-[(3-bromo-4-methylphenyl)(1-methylpiperidin-4-yloxy)methyl]-1H-benzimidazole]	< 300	92
CN1CCC(OC(c2nc3cc(F)ccc3[nH]2)c2cc(C#CCCCN)ccc2F)CC1 (stereo not drawn) [Example 558]	< 30	90
CN1CCC(NC(c2cccnc2)c2nc3ccccc3s2)CC1 (stereo not drawn) [Example 52, (benzothiazol-2-ylpyridin-3-ylmethyl)(1-methylpiperidin-4-yl)amine]	< 1000	109
CSc1cccc(C(NC2CCN(C)CC2)c2nc3ccccc3[nH]2)c1 (stereo not drawn) [Example 75, [(1H-benzimidazol-2-yl)(3-methylsulfanylphenyl)methyl](1-methylpiperidin-4-yl)amine]	< 30	166
CN1CCC(OC(c2ccc(C(F)(F)F)cc2)c2nc3ccccc3[nH]2)CC1 (stereo not drawn) [Example 537]	< 1000	86
Cc1cc(F)cc(O)c1C(OC1CCN(C)CC1)c1nc2ccccc2[nH]1 (stereo not drawn) [Example 600]	< 30	146
CN1CCC(NC(c2cccc(OCCCCN)c2)c2nc3ccccc3[nH]2)CC1 (stereo not drawn) [Example 367, [[3-(4-aminobutoxy)phenyl](1H-benzimidazol-2-yl)methyl](1-methylpiperidin-4-yl)amine]	< 300	68
CCOC(=O)NCCCC#Cc1ccc(F)c(C(OC2CCN(C)CC2)c2nc3ccccc3[nH]2)c1 (stereo not drawn) [Example 560]	< 300	87
CN1CCC(OC(c2cccc(SCCCCO)c2)c2nc3cc(F)c(F)cc3[nH]2)CC1 (stereo not drawn) [Example 470]	< 300	60
CN1CCC(OC(c2cccc(N)c2)c2nc3ccccc3[nH]2)CC1 (stereo not drawn) [Example 224, 3-[(1H-benzimidazol-2-yl)(1-methylpiperidin-4-yloxy)methyl]phenylamine]	< 300	100
CN1CCC(OC(c2cccc(-c3ccc(C(F)(F)F)cc3)c2)c2nc3ccccc3[nH]2)CC1 (stereo not drawn) [Example 119, 2-[(1-methylpiperidin-4-yloxy)(4′-trifluoromethylbiphenyl-3-yl)methyl]-1H-benzimidazole]	< 300	95
Cc1ccc(C(OC2CCN(C)CC2)c2nc3ccccc3[nH]2)c(O)c1 (stereo not drawn) [Example 574]	< 30	145
CN1CCC(OC(c2nc3ccccc3[nH]2)c2ccccc2OC(F)(F)F)CC1 (stereo not drawn) [Example 251, 2-[(1-methylpiperidin-4-yloxy)(2-trifluoromethoxy-phenyl)methyl]-1H-benzimidazole]	< 1000	193
CN1CCC(OC(c2nc3ccccc3[nH]2)c2cc(O)ccc2O)CC1 (stereo not drawn) [Example 618]	< 30	189
COc1ccc(-c2cccc(C(NC3CCN(C)CC3)c3nc4ccccc4[nH]3)c2)cc1 (stereo not drawn) [Example 222, [(1H-benzimidazol-2-yl)(4′-methoxy-biphenyl-3-yl)methyl](1-methylpiperidin-4-yl)amine]	< 300	110
CN1CCC(OC(c2nc3ccccc3[nH]2)c2ccccc2O)CC1 (stereo not drawn) [Example 561, 2-[(1H-benzimidazol-2-yl)(1-methylpiperidin-4-yloxy)methyl]phenol]	< 30	118 to 120
CN1CCC(OC(c2cccc(Br)c2)c2nc3ccccc3s2)CC1 (stereo not drawn) [Example 27, 2-[(3-bromo-phenyl)(1-methylpiperidin-4-yloxy)methyl]benzothiazole]	< 30	99

SMILES	Ki or IC50 activity class (human H4 receptor) [nM]	melting point [°C]
CN1CCC(OC(c2nc3ccccc3[nH]2)c2cc(C(C)(C)C)ccc2O)CC1 (stereo not drawn) [Example 590]	< 1000	139
CN1CCC(OC(c2cccc(-c3ccn[nH]3)c2)c2nc3ccccc3s2)CC1 (stereo not drawn) [Example 260, 2-{(1-methylpiperidin-4-yloxy)[3-(2H-pyrazol-3-yl)phenyl]methyl}benzothiazole]	< 30	90
COc1ccc(O)c(C(OC2CCN(C)CC2)c2nc3ccccc3[nH]2)c1 (stereo not drawn) [Example 573]	< 300	146
CCOc1cccc(C(NC2CCN(C)CC2)c2nc3ccccc3[nH]2)c1 (stereo not drawn) [Example 83, [(1H-benzimidazol-2-yl)(3-ethoxyphenyl)methyl](1-methylpiperidin-4-yl)amine]	< 300	74
COc1ccc(-c2cccc(C(OC3CCN(C)CC3)c3nc4ccccc4[nH]3)c2)cc1 (stereo not drawn) [Example 183, 2-[(4′-methoxybiphenyl-3-yl)(1-methylpiperidin-4-yloxy)methyl]-1H-benzimidazole]	< 300	92
Cc1ccccc1C(OC1CCN(C)CC1)c1nc2ccccc2[nH]1 (stereo not drawn) [Example 193, 2-[(1-methylpiperidin-4-yloxy)-o-tolyl-methyl]-1H-benzimidazole]	< 300	190
COc1ccc(F)c(C(OC2CCN(C)CC2)c2nc3ccccc3[nH]2)c1F (stereo not drawn) [Example 534, 2-[(2,6-difluoro-3-methoxyphenyl)(1-methylpiperidin-4-yloxy)methyl]-1H-benzimidazole]	< 300	185
CN1CCC(OC(c2nc3c(F)c(F)c(F)cc3[nH]2)c2cc(OC(F)(F)F)ccc2F)CC1 (stereo not drawn) [Example 510]	< 300	75
CN1CCC(OC(c2cccc(SCCCCO)c2)c2nc3cc(F)ccc3[nH]2)CC1 (stereo not drawn) [Example 427, 4-{3-[(5-fluoro-1H-benzimidazol-2-yl)(1-methylpiperidin-4-yloxy)methyl]phenylsulfanyl}butan-1-ol]	< 300	85
CN1CCC(OC(c2cccc(SCCC3CCCCN3)c2)c2nc3ccccc3[nH]2)CC1 (stereo not drawn) [Example 395, 2-{(1-methylpiperidin-4-yloxy)[3-(2-piperidin-2-yl-ethylsulfanyl)phenyl]methyl}-1H-benzimidazole]	< 300	164
CN1CCC(OC(c2cccc(C#CCCCNC(=N)NC(=O)OC(C)(C)C)c2)c2nc3ccccc3s2)CC1 (stereo not drawn) [Example 339, N-tert-butoxycarbonyl-N′-(5-{3-[(benzothiazol-2-yl)(1-methylpiperidin-4-yloxy)methyl]phenyl}pent-5-ynyl)guanidine]	< 300	125
CN1CCC(NC(c2ccc[nH]2)c2nc3ccccc3s2)CC1 (stereo not drawn) [Example 58, [benzothiazol-2-yl(1H-pyrrol-2-yl)methyl](1-methylpiperidin-4-yl)amine]	< 300	125
CN1CCC(OC(c2nc3ccccc3[nH]2)c2cc(OCCF)ccc2O)CC1 (stereo not drawn) [Example 605]	< 30	222
CN1CCC(OC(c2ccccc2)c2nc3cccc(N)c3[nH]2)CC1 (stereo not drawn) [Example 200, 2-[(1-methylpiperidin-4-yloxy)phenyl-methyl]-3H-benzimidazol-4-ylamine]	< 300	96.7
CN1CCC(OC(c2cccc(SCCNC(=N)N)c2)c2nc3cc(F)ccc3[nH]2)CC1 (stereo not drawn) [Example 437, N-(2-{3-[(5-fluoro-1H-benzimidazol-2-yl)(1-methylpiperidin-4-yloxy)methyl]phenylsulfanyl}ethyl)guanidine]	< 30	170
CC(C)CCCOc1cccc(C(NC2CCN(C)CC2)c2nc3ccccc3[nH]2)c1 (stereo not drawn) [Example 146, {(1H-benzimidazol-2-yl)[3-(4-methylpentyloxy)phenyl]methyl}(1-methylpiperidin-4-yl)amine]	< 300	73
CN1CCC(OC(c2cccc(SCC3=NCCN3)c2)c2nc3ccccc3[nH]2)CC1 (stereo not drawn) [Example 468, 2-[[3-(4,5-dihydro-1H-imidazol-2-ylmethylsulfanyl)phenyl](1-methylpiperidin-4-yloxy)methyl]-1H-benzimidazole]	< 300	62
Cc1c(F)cc(C(OC2CCN(C)CC2)c2nc3ccccc3[nH]2)c(O)c1F (stereo not drawn) [Example 624]	< 30	146
Cc1ccc(C(OC2CCN(C)CC2)c2nc3ccccc3[nH]2)c(F)c1F (stereo not drawn) [Example 551]	< 300	80
CN1CCC(OC(c2cccc(OCCN)c2)c2nc3ccccc3[nH]2)CC1 (stereo not drawn) [Example 291, 2-{3-[(1H-benzimidazol-2-yl)(1-methylpiperidin-4-yloxy)methyl]phenoxy}ethylamine]	< 300	90
COc1cc(F)cc(C(OC2CCN(C)CC2)c2nc3ccccc3[nH]2)c1O (stereo not drawn) [Example 610]	< 1000	108
